Assay results as given in the supplement of paper PMC13380429.

Key:
Settings in all cases: 72 h
[1] = test system: Caco-2; assay: cell viability relative to DMSO; higher = less toxic
[2] = test system: Calu-3; assay: as above
[3] = test system: HepG2; assay: as above
[4] = test system: U2OS; assay: as above
[5] = test system: Vero E6; assay: as above
[6] = test system: Caco-2; assay: relative viability EC50 (midpoint between 100% and the lowest measured viability); higher = less toxic
[7] = test system: Calu-3; assay: as above
[8] = test system: HepG2; assay: as above
[9] = test system: U2OS; assay: as above
[10] = test system: Vero E6; assay: as above
[11] = test system: Caco-2; assay: drug sensitivity score (DSS) for viability; higher = more toxic; extreme values may be limits of the assay
[12] = test system: Calu-3; assay: as above
[13] = test system: HepG2; assay: as above
[14] = test system: U2OS; assay: as above
[15] = test system: Vero E6; assay: as above

| SMILES | cell viability ([1]; 1 nM) [%] | cell viability ([1]; 10 nM) [%] | cell viability ([1]; 100 nM) [%] | cell viability ([1]; 1000 nM) [%] | cell viability ([1]; 10000 nM) [%] | cell viability ([2]; 1 nM) [%] | cell viability ([2]; 10 nM) [%] | cell viability ([2]; 100 nM) [%] | cell viability ([2]; 1000 nM) [%] | cell viability ([2]; 10000 nM) [%] | cell viability ([3]; 1 nM) [%] | cell viability ([3]; 10 nM) [%] | cell viability ([3]; 100 nM) [%] | cell viability ([3]; 1000 nM) [%] | cell viability ([3]; 10000 nM) [%] | cell viability ([4]; 1 nM) [%] | cell viability ([4]; 10 nM) [%] | cell viability ([4]; 100 nM) [%] | cell viability ([4]; 1000 nM) [%] | cell viability ([4]; 10000 nM) [%] | cell viability ([5]; 1 nM) [%] | cell viability ([5]; 10 nM) [%] | cell viability ([5]; 100 nM) [%] | cell viability ([5]; 1000 nM) [%] | cell viability ([5]; 10000 nM) [%] | relative viability EC50 [6] [µM] | relative viability EC50 [7] [µM] | relative viability EC50 [8] [µM] | relative viability EC50 [9] [µM] | relative viability EC50 [10] [µM] | drug sensitivity score [11] | drug sensitivity score [12] | drug sensitivity score [13] | drug sensitivity score [14] | drug sensitivity score [15] |
| --- | --- | --- | --- | --- | --- | --- | --- | --- | --- | --- | --- | --- | --- | --- | --- | --- | --- | --- | --- | --- | --- | --- | --- | --- | --- | --- | --- | --- | --- | --- | --- | --- | --- | --- | --- |
| CC(C)Cn1cnc2c(N)nc3ccccc3c21 [imiquimod] | 96.4 | 92.9 | 105 | 97.7 | 100 | 103 | 96 | 102 | 94.5 | 103 | 93.6 | 95.5 | 100 | 109 | 112 | 92.7 | 101 | 94.3 | 100 | 105 | 93.1 | 93.2 | 99 | 88.9 | 100 | > 10 | > 10 | > 10 | > 10 | > 10 | 0 | 0 | 0 | 0 | 0 |
| CNC1CC(c2ccc(Cl)c(Cl)c2)c2ccccc21 (stereo not given) [indatraline] | 99.7 | 103 | 95 | 103 | 86.8 | 102 | 96.3 | 93 | 107 | 89 | 97.6 | 96 | 96.4 | 99 | 92.7 | 100 | 102 | 94 | 102 | 90.1 | 99.4 | 95.4 | 96.4 | 99.4 | 91.7 | > 10 | > 10 | > 10 | > 10 | > 10 | 0.1 | 0 | 0 | 0 | 0 |
| Nc1nc(OCc2cc(Br)cs2)c2[nH]cnc2n1 [lomeguatrib] | 96.9 | 90.9 | 110 | 96.1 | 100 | 106 | 103 | 95.8 | 102 | 93 | 87.7 | 99.9 | 84 | 98.8 | 100 | 101 | 94.6 | 106 | 100 | 99.7 | 105 | 104 | 95.4 | 102 | 99.9 | > 10 | > 10 | > 10 | > 10 | > 10 | 0 | 0 | 0 | 0 | 0 |
| Cc1c(F)cc(C(=O)NC2CC2)cc1-c1ccc(C(=O)NCC(C)(C)C)cn1 [losmapimod] | 97 | 90.8 | 90.8 | 83.4 | 80.6 | 110 | 94.4 | 90.5 | 84 | 87.7 | 97.9 | 99.8 | 105 | 103 | 87.3 | 102 | 96.5 | 97.2 | 90.3 | 92.5 | 95.8 | 101 | 92.8 | 88.7 | 80.5 | > 10 | > 10 | > 10 | > 10 | > 10 | 2.4 | 2.1 | 0 | 0 | 1.3 |
| CN1CCN2c3c(cccc31)[C@@H]1CN(CCCC(=O)c3ccc(F)cc3)CC[C@@H]12 [lumateperone] | 96.5 | 100 | 97.1 | 97.6 | 78.8 | 101 | 112 | 98.3 | 110 | 92.3 | 100 | 91.6 | 103 | 101 | 80.7 | 96.6 | 102 | 94.1 | 99.6 | 89.1 | 98.4 | 92.7 | 101 | 99.6 | 97.3 | > 10 | > 10 | > 10 | > 10 | > 10 | 1 | 0 | 0.5 | 0 | 0 |
| CN(C)CCOC(=O)COc1ccc(Cl)cc1 [meclofenoxate] | 94.5 | 98.1 | 96.2 | 97.4 | 99.5 | 98 | 95.8 | 87.8 | 106 | 106 | 92.2 | 93.8 | 105 | 94.4 | 108 | 92.5 | 99.7 | 97.3 | 98.3 | 103 | 95.5 | 93.4 | 95.3 | 92.8 | 111 | > 10 | > 10 | > 10 | > 10 | > 10 | 0 | 0 | 0 | 0 | 0 |
| COc1ccc(Cl)cc1C(=O)NCCc1ccc(C(=O)O)cc1 [meglitinide] | 90.9 | 102 | 94.8 | 91.5 | 98.1 | 108 | 103 | 98.1 | 96.8 | 114 | 109 | 106 | 110 | 88.7 | 94.2 | 101 | 98.2 | 98.6 | 93.4 | 99.6 | 98.4 | 105 | 100 | 104 | 103 | > 10 | > 10 | > 10 | > 10 | > 10 | 0 | 0 | 0.3 | 0 | 0 |
| CSCC[C@H](NC(=O)[C@H](Cc1ccccc1)NC(=O)CNC(=O)CNC(=O)[C@@H](N)Cc1ccc(O)cc1)C(=O)O [metenkephalin] | 94.7 | 94.9 | 100 | 96.4 | 97.2 | 102 | 99.7 | 105 | 94.3 | 101 | 96.6 | 99 | 91 | 115 | 107 | 103 | 97.1 | 102 | 102 | 102 | 93.8 | 96.5 | 96.7 | 98.4 | 108 | > 10 | > 10 | > 10 | > 10 | > 10 | 0 | 0 | 0 | 0 | 0 |
| Cc1[nH]c(=O)c(C#N)cc1-c1ccncc1 [milrinone] | 100 | 98.4 | 103 | 87.5 | 85.9 | 95.3 | 89.1 | 99.5 | 108 | 101 | 102 | 101 | 98.3 | 96.2 | 106 | 103 | 95.6 | 99.9 | 97.7 | 100 | 95.6 | 101 | 95.3 | 97.6 | 94.5 | > 10 | > 10 | > 10 | > 10 | > 10 | 0.9 | 0 | 0 | 0 | 0 |
| CCOC(=O)[N-]c1c[n+](N2CCOCC2)no1 [molsidomine] | 94.4 | 96.5 | 106 | 95.1 | 104 | 95.8 | 88.6 | 91.6 | 91.8 | 89.4 | 87.6 | 95.4 | 97.8 | 106 | 107 | 99.3 | 97.6 | 104 | 99.8 | 102 | 92.1 | 99.7 | 95.5 | 96.4 | 109 | > 10 | > 10 | > 10 | > 10 | > 10 | 0 | 0.1 | 0 | 0 | 0 |
| CC1CCc2c(N3CCC(O)CC3)c(F)cc3c(=O)c(C(=O)O)cn1c23 (stereo not given) [nadifloxacin] | 104 | 92.1 | 94.7 | 114 | 96.2 | 97.6 | 96.4 | 102 | 105 | 107 | 97 | 111 | 108 | 103 | 107 | 98.9 | 97.5 | 98.6 | 96.1 | 106 | 94.5 | 100 | 97.9 | 95.7 | 106 | > 10 | > 10 | > 10 | > 10 | > 10 | 0 | 0 | 0 | 0 | 0 |
| c1ccc2c(CC3=NCCN3)cccc2c1 [naphazoline] | 95.6 | 102 | 90.1 | 101 | 93.2 | 93.6 | 93.6 | 109 | 107 | 89 | 96.1 | 102 | 102 | 98.4 | 118 | 97 | 101 | 94.9 | 97.8 | 93.9 | 102 | 99.4 | 95.5 | 97.7 | 93.3 | > 10 | > 10 | > 10 | > 10 | > 10 | 0 | 0 | 0 | 0 | 0 |
| C[C@@H]1O[C@@H](O[C@H]2[C@H](Oc3cc(O)c(C(=O)CCc4ccc(O)cc4)c(O)c3)O[C@H](CO)[C@@H](O)[C@@H]2O)[C@H](O)[C@H](O)[C@H]1O [naringin-dihydrochalcone] | 94.2 | 92.2 | 99.5 | 102 | 96.3 | 95.6 | 90.9 | 92.7 | 101 | 105 | 110 | 93.2 | 105 | 90.9 | 101 | 93.1 | 96.2 | 94.2 | 102 | 95.6 | 104 | 104 | 104 | 102 | 99.9 | > 10 | > 10 | > 10 | > 10 | > 10 | 0 | 0 | 0 | 0 | 0 |
| COC(=O)c1ccc2c(c1)NC(=O)/C2=C(\Nc1ccc(N(C)C(=O)CN2CCN(C)CC2)cc1)c1ccccc1 [nintedanib] | 93.1 | 108 | 102 | 94.7 | 107 | 106 | 98 | 102 | 101 | 90.4 | 98.9 | 101 | 103 | 91.2 | 80.3 | 101 | 101 | 97.1 | 104 | 94 | 110 | 102 | 106 | 100 | 98.5 | > 10 | > 10 | > 10 | > 10 | > 10 | 0 | 0 | 1.5 | 0 | 0 |
